Measurements reported in US12678451B2, “Cannabinoid and omega fatty acid compositions and methods of using” (GreenWay Herbal Products, LLC, priority 2019, dated 2026).

Tests used:
[1] = tested on: cytokine levels in differentiated THP-1 cells treated with LPS; assay: THP-1 human cellular LPS cytokine assay, four independent experiments, per cytokine; format: cell-based; settings: LPS 20 ng/mL
[2] = tested on: cytokines induced in mice by LPS; assay: Mouse LPS cytokine model, Example 6C Study 1, omega fatty acids with or without 0.5 mg/kg 1:1 CBD:CBDA; format: in vivo; settings: 0.5 mg/kg (0.01 mg per mouse)
Protocol: (§1) A series of experiments using a mouse LPS cytokine animal model were performed. In the mouse LPS cytokine animal model, mice were injected with LPS, which induced the immune response shortly after the mice were injected with one of the potential anti-inflammatory compounds under evaluation (the “test compound”). The efficacy of the test compound was evaluated based on its ability to reduce expression levels of inflammatory cytokines that were elevated due to the immune response. The test compounds included a cannabinoid, an omega fatty acid, and a cannabinoid-omega fatty acid composition.
(§2) The mice were intraperitoneally injected with 0.1 mL of the test compound. One hour later, the mice were intraperitoneally injected with 0.1 mL of LPS in phosphate buffered saline (PBS). Four hours later, a heart puncture was performed and the blood was allowed to clot to generate serum. 0.1 mL of the serum was diluted 1:2 with PBS and stored at −80° C. The serum was then sent to a laboratory where a mouse cytokine array/chemokine array 31-plex (MD31) analysis was performed that analyzed the expression levels of the 32 cytokines/chemokines listed in Table 9, above.
(§3) For each considered test compound, the ability of the test compound to suppress each inflammatory cytokine was calculated by determining the percent suppression.
(§4) In this study, the effects of combining 1:1 CBD:CBDA with anti-inflammatory omega unsaturated fatty acids using the mouse LPS cytokine animal model were examined.
(§5) 32 female C57BL/6 mice that weighed approximately 20 g each were allowed to acclimate for one week with unlimited access to food and water. On the day of the study, the mice were weighed and split into eight groups of four mice each so that the average weight of each group was as close as possible to each other.
(§6) Because the purpose of this experiment was to evaluate the effectiveness of combining 1:1 CBD:CBDA and the anti-inflammatory omega fatty acids, only cytokines that could be suppressed by one of the anti-inflammatory agents used in this study were considered.

[3] = tested on: cytokines induced in mice by LPS; assay: Mouse LPS cytokine model, Example 6A Study 3, 1:1 CBD:CBDA in MCT oil; format: in vivo; settings: 0.5 mg/kg
Protocol: as §1, §2, §3, §5
The 1:1 CBD:CBDA test compounds were dosed at 5 mg/kg or 0.1 mg per 20 g mouse, 1.67 mg/kg or 0.033 mg per 20 g mouse, 0.5 mg/kg or 0.01 mg per 20 g mouse, 0.167 mg/kg or 0.0033 mg per 20 g mouse and 0.05 mg/kg or 0.001 mg per 20 g mouse. The test compounds were prepared as 1 mg/mL, 0.33 mg/mL, 0.1 mg/mL, 0.033 mg/mL and 0.01 mg/mL solutions in MCT oil for a 0.1 mL injection. […] The LPS was dosed at 0.1 mg/kg or 0.002 mg per 20 g mouse. The LPS was prepared as a 0.02 mg/mL solution in PBS for a 0.1 mL injection.

[4] = tested on: cytokines induced in mice by LPS; assay: Mouse LPS cytokine model, Example 6C Study 2, omega fatty acids with or without 0.5 mg/kg 1:1 CBD:CBDA; format: in vivo; settings: 0.5 mg/kg (0.01 mg per mouse)
Protocol: as §1, §2, §3, §4
40 female C57BL/6 mice that weighed approximately 20 g each were allowed to acclimate for one week with unlimited access to food and water. On the day of the study, the mice were weighed and split into ten groups of four mice each so that the average weight of each group was as close as possible to each other. […] (9) LPS plus 37.50 mg omega fatty acids (0.1 mL injection of 375.00 mg/mL omega fatty acids diluted in MCT oil, followed 1 hour later by a 0.1 mL injection of LPS in PBS); and (10) LPS plus 37.50 mg omega fatty acids/0.01 mg 1:1 CBD:CBDA (0.1 mL injection of 375.00 mg/mL omega fatty acids/0.1 mg/mL 1:1 CBD:CBDA diluted in MCT oil, followed 1 hour later by a 0.1 mL injection of LPS in PBS).
as §6

Compound `C[C@@H]1C[C@H]2[C@@H]3CCC4=CC(=O)C=C[C@]4(C)[C@@]3(F)[C@@H](O)C[C@]2(C)[C@@]1(O)C(=O)CO` [Dexamethasone, dexamethasone] has an EGF suppression ([1]; 2 µM) of 0.74%, an FGF-β suppression ([1]; 2 µM) of −18.23% and a Flt-3L suppression ([1]; 2 µM) of 57.45%. The IFNγ suppression ([1]; 2 µM) was 56.19%, the IL-1α suppression ([1]; 2 µM) was 77.5% and the IL-1β suppression ([1]; 2 µM) was 67.84%. The IL-4 suppression ([1]; 2 µM) was 56.32%, the IL-6 suppression ([1]; 2 µM) was 90.56% and the IL-7 suppression ([1]; 2 µM) was 64.36%. The IL-10 suppression ([1]; 2 µM) was 74.07%, the “IL-12 p70 suppression” value ([1]; 2 µM) was 1.37% and the IL-15 suppression ([1]; 2 µM) was 29.2%. It also gave an IL-18 suppression ([1]; 2 µM) of −15.38%, an IP-10 suppression ([1]; 2 µM) of 64.85% and an MCP-1 suppression ([1]; 2 µM) of 83.18%. For the same compound, the MIP-1β suppression ([1]; 2 µM) was 73.58%, the TNFα suppression ([1]; 2 µM) was 45.33% and the TNFβ suppression ([1]; 2 µM) was 72.69%. The Average cytokine suppression [1] was 50.17%, the “AVERAGE SUPPRESSION” value [2] was 20.66% and the IFNγ suppression [2] was −41.63%. For the same compound, the IL-1β suppression [2] was 19.75%, the IL-6 suppression [2] was 64.76% and the IL-10 suppression [2] was 19.59%. The “IL-12 p70 suppression” value [2] was 10.64%, the “IL-12β p40 suppression” value [2] was 39.02% and the IL-15 suppression [2] was 26.30%. The IL-17 suppression [2] was 49.77%, the IP-10 suppression [2] was 24.44% and the KC suppression [2] was 40.63%. The LIF suppression [2] was 29.55%, the MCP-1 suppression [2] was 26.32% and the MIG suppression [2] was 3.78%. It also gave an MIP-1α suppression [2] of 26.86%, an MIP-1β suppression [2] of 5.51% and an MIP-2 suppression [2] of 34.16%. For the same compound, the RANTES suppression [2] was −13.70%, the TNF-α suppression [2] was 26.92% and the “AVERAGE SUPPRESSION” value [3] was 34.65%. It also gave an Eotaxin suppression [3] of 55.51%, an IFNγ suppression [3] of 14.14% and an IL-1β suppression [3] of 61.12%. It also gave an IL-2 suppression [3] of −15.63%, an IL-6 suppression [3] of 78.65% and an IL-7 suppression [3] of 12.53%. The IL-9 suppression [3] was 5.23%, the IL-10 suppression [3] was 46.83% and the “IL-12 p70 suppression” value [3] was −46.46%. For the same compound, the “IL-12β p40 suppression” value [3] was 29.69%, the IL-13 suppression [3] was 21.00% and the IL-17 suppression [3] was 53.81%. For the same compound, the IP-10 suppression [3] was 38.48%, the KC suppression [3] was 86.96% and the LIF suppression [3] was 35.14%. For the same compound, the MCP-1 suppression [3] was 69.72%, the MIG suppression [3] was 37.08% and the MIP-1α suppression [3] was 48.38%. For the same compound, the MIP-1β suppression [3] was 32.24%, the MIP-2 suppression [3] was 41.28% and the RANTES suppression [3] was 32.46%. The TNF-α suppression [3] was 53.09%, the VEGF suppression [3] was 66.07% and the “AVERAGE SUPPRESSION” value [4] was 46.54%. It also gave an IFNγ suppression [4] of 70.28%, an IL-6 suppression [4] of 76.63% and an IL-7 suppression [4] of 31.25%. For the same compound, the IL-10 suppression [4] was 24.07%, the “IL-12β p40 suppression” value [4] was 56.90% and the IL-15 suppression [4] was 42.45%. It also gave an IL-17 suppression [4] of 64.04%, an IP-10 suppression [4] of 44.62% and a KC suppression [4] of 79.04%. It also gave an LIF suppression [4] of 51.34%, an MCP-1 suppression [4] of 57.38% and an MIG suppression [4] of 20.57%. The MIP-1α suppression [4] was 59.54%, the MIP-1β suppression [4] was 27.89% and the RANTES suppression [4] was 46.25%. It also gave a TNF-α suppression [4] of 61.44%.
